The text below walks through data of article PMC12893000, “Structural basis of quinone sensing by the MarR-type repressor MhqR in Staphylococcus aureus” (mBio, 2025).

Assay [1] has as its target T1, SaMhqR (Staphylococcus aureus, UniProt W8U802).
T1 construct: gene ACR79_11795; full-length (144 amino acids), C-terminal His-tag, homodimer
Briefly: ITC. The class given is binding.

The target in assay [2] is T1, SaMhqR. Briefly: crystal structure (co-crystallized with MHQ, oxidized to MBQ) and ITC. It counts as binding.

T1 sequence (W8U802 entry or part of it): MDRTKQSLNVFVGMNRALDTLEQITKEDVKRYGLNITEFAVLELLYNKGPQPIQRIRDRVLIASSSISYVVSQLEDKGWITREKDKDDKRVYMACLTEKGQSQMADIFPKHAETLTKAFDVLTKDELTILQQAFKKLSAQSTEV

By Kd is commonly meant the concentration at which binding is half-saturated. Read a low Kd as a tighter complex. For the compound `Cc1cc(O)ccc1O` [MHQ, 2-methylhydroquinone], the dissociation constant (Kd) in assay [1] was around 6 µM.

`CC1=CC(=O)C=CC1=O` [MBQ, 2-methylbenzoquinone]: the Kd in assay [2] is around 3 µM.
